Here are results for 17 molecules from patent US7645881B2, “Methods for treating hepatitis C” (PTC Therapeutics, Inc., priority 2004, dated 2010).

The subject of one data set is HCV replicon. Kind of data set: microbe, parasite or virus in culture. The conditions noted are these: Hepatitis C virus, 48 h, read-out: Replicon IC50s μM. The format is cell-based.
The test system of data set [1] is wild-type poliovirus (WT-PV). In kind it is cell-based. The conditions noted are these: HeLa cells, MOI 0.1, compound for one day, decrease of cytopathic effect.
For data set [2], the system named is cap-dependent translation. Kind of data set: Western blot of Fluc protein in pLuc cells (cap-dependent translation). In kind it is cell-based, human. The conditions noted are these: 20 hours, data not shown.

Bounds are passed on as bounds.

What is called melting point is the temperature of the solid-liquid transition. In turn, `CCc1c(C)nc2sc(N)c(C#N)c2c1C` [Compound 35, 2-amino-5-ethyl-4,6-dimethylthieno[2,3-b]pyridine-3-carbonitrile] showed a melting point of 223 to 225 °C. Further, the IC50 with HCV replicon is above 2 µM. Moreover, in data set [1], the “WTPV CPE (1.2 μM)” value stood at 0, the “WTPV CPE (11.1 μM)” value is 1 (A “1” in the WT-PV CPE columns indicates that the CPE (cytopathic effect) is decreased by 20-50%.) and the “WTPV CPE (100 μM)” value was 2 (A “2” in the WT-PV CPE columns indicates that the CPE is decreased by 50-75%.).
Molecule `CCc1c(C)nc2sc(NC(=O)C(C)(C)C)c(C#N)c2c1C` [Compound 50] yielded a melting point of 164 to 166 °C. Also, in the data set with HCV replicon, the IC50 is above 2 µM. Further, in data set [1], the “WTPV CPE (1.2 μM)” value came out at 0, the “WTPV CPE (11.1 μM)” value is listed as 1 (A “1” in the WT-PV CPE columns indicates that the CPE (cytopathic effect) is decreased by 20-50%.) and the “WTPV CPE (100 μM)” value is 3 (A “3” in the WT-PV CPE columns indicates that the CPE is decreased by 75-100%.).
As for `CCc1c(C)nc2sc(S(C)(=O)=O)c(C#N)c2c1C` [Compound 54], the melting point lay in the range of 219 to 220 °C. In addition, the IC50 in the data set on HCV replicon was above 2 µM.
The like results for `N#Cc1c(NC(=O)c2cccc(C(F)(F)F)c2)sc2nc3c(c(-c4cccs4)c12)CCCCC3` [Compound 58, N-(3-cyano-4-thiophen-2-yl-6,7,8,9-tetrahydro-5H-1-thia-10-aza-cyclohepta[f]inden-2-yl)-3-trifluoromethyl-benzamide] were, in that order, 226.9 to 227.1 °C and above 2 µM.
For the molecule `CN1CCN(C(=O)c2sc3nc4c(c(C(F)(F)F)c3c2N)CCCCC4)CC1` [Compound 5], in the data set with HCV replicon, the IC50 is above 2 µM. In data set [1], the “WTPV CPE (1.2 μM)” value stood at 0, the “WTPV CPE (11.1 μM)” value is on record as 1 (A “1” in the WT-PV CPE columns indicates that the CPE (cytopathic effect) is decreased by 20-50%.) and the “WTPV CPE (100 μM)” value is given as 2 (A “2” in the WT-PV CPE columns indicates that the CPE is decreased by 50-75%.).
In turn, `Cc1nc2sc(-c3nnc(-c4ccc(F)cc4)o3)c(N)c2c(C)c1C` [Compound 10] had a melting point of 320 to 322 °C. Further, the IC50 in the data set with HCV replicon was in the range of 0.5 to 2 µM.
In the same order, the values of `CN1CCN(C(=O)c2sc3nc4c(c(-c5cccs5)c3c2N)CCCCC4)CC1` [Compound 47] are 115 to 118 °C and above 2 µM.
The like results for `Cc1nc2sc(-c3nnc(-c4ccc(Cl)cc4)o3)c(N)c2c(C)c1C` [Compound 12] were, in that order, 331 to 332 °C and above 2 µM.
In the case of `Nc1c(C(=O)Nc2ccc(C(F)(F)F)cc2)sc2nc3c(cc12)CCCCC3` [Compound 29], the IC50 in the data set with HCV replicon is above 2 µM. Moreover, in data set [1], the “WTPV CPE (1.2 μM)” value amounted to 0, the “WTPV CPE (11.1 μM)” value was 1 (A “1” in the WT-PV CPE columns indicates that the CPE (cytopathic effect) is decreased by 20-50%.) and the “WTPV CPE (100 μM)” value is 2 (A “2” in the WT-PV CPE columns indicates that the CPE is decreased by 50-75%.).
`CCc1c(C)nc2sc(C(=O)OC(C)(C)C)c(-c3ccoc3)c2c1C` [Compound 40] showed a melting point of 111 to 111.5 °C. In addition, the IC50 with HCV replicon was above 2 µM.
On to `CCc1c(C)nc2sc(C(=O)OC(C)(C)C)c(-c3ccc(Cl)cc3)c2c1C` [Compound 42], for which the melting point was in the range of 117 to 118 °C. Also, the IC50 in the data set on HCV replicon is above 2 µM.
The like results for `CCc1c(C)nc2sc(C(C)=O)c(-n3cccc3)c2c1C` [Compound 27] were, in that order, 145 to 147 °C and above 2 µM.
`N#Cc1c(-c2ccc3c(c2)OCO3)sc2nc3c(c(-c4cccs4)c12)CCCCC3` [Compound 62] gave a melting point of 210 to 211 °C. For the same molecule, the IC50 in the data set on HCV replicon was above 2 µM.
On to `Cc1nc2sc(-c3nnc(-c4ccccn4)o3)c(N)c2c(C)c1C` [Compound 16], for which the melting point is 306 to 308 °C. The IC50 in the data set with HCV replicon is below 0.5 µM.
With `COc1ccc(C[C@H](N)C(=O)N[C@H]2[C@@H](O)[C@H](n3cnc4c(N(C)C)ncnc43)O[C@@H]2CO)cc1` [puromycin], the “cap-dependent protein production (luciferase reporter protein level, Western blot)” value in data set [2] is on record as “inhibited”.
Molecule `Cc1nc2sc(-c3ncc(-c4ccccc4)o3)c(N)c2c(C)c1C` [Compound 26] gave a melting point of 284 to 285 °C. Also, in the data set on HCV replicon, the IC50 is 0.5 to 2 µM.
Molecule `CCc1c(C)nc2sc(C(=O)OC(C)(C)C)c(-c3cccc(Cl)c3)c2c1C` [Compound 43] showed a melting point of 152.1 to 152.6 °C. In addition, in the data set with HCV replicon, the IC50 was above 2 µM.
